Test results published in PubChem BioAssay AID1963837 (Molecular Pharmacology Branch, DTP, NCI, 2024).
Several values for one entry are separate records, joined by “and”; a condition that tells them apart may be missing. Identical values can stand only once.

System: 843126-344-R-J1-PDC complex spheroid viability
Assay: Anticancer human tumor 843126-344-R-J1-PDC patient-derived melanoma cell line growth inhibition [POLQ]
Settings: for viability, T/C: stronger effect = lower value
Protocol: Multicellular complex tumor spheroid response to Polymerase (POL) inhibitors (novobiocin, ART-558, RP6685) in combination with a variety of drugs and investigational agents in selected tumor cell lines
The POL inhibitors (novobiocin, ART-558, and RP6685) were evaluated both individually and in combination with standard of care and investigational anticancer small molecules within a complex spheroid model of solid tumors. . Complex spheroids include a stromal component modeled by human endothelial cells (HUVEC) and fibroblasts modeled by human mesenchymal stem cells (MSCs). The concentration ranges selected for each drug and investigational agent were based upon clinically achievable concentrations if the clinical Cmax of the agent was known.
Compounds. The drugs and investigational agents: novobiocin (NSC847541), ART-558 (NSC835418), RP-6685 (NSC848927), peposertib (NSC802822), ceralasertib (NSC780249), elimusertib (NSC800525), camonsertib (NSC841442), AZD-1390 (NSC803789), olaparib (NSC753686), talazoparib (NSC767125), rucaparib (NSC756644), sotorasib (NSC818433), MRTX-1133 (NSC836407), SN-38 (NSC673596), topotecan (NSC609699), epotoside (NSC141540), doxorubicin (NSC123127), gemcitabine (NSC613327), 5-fluorouracil (NSC19893), paclitaxel (NSC125973), vemurafenib (NSC761431), MSA-2 (NSC828583), SN-011 (NSC837082), adavosertib (NSC754352), prexasertib (NSC758257), carboplatin (NSC241240) and oxaliplatin (NSC266046), were obtained from the National Cancer Institute (NCI) Developmental Therapeutics Program Chemical Repository (21). The FDA-approved anticancer drug set is available from the Developmental Therapeutics Program at https://dtp.cancer.gov/organization/dscb/obtaining/. […] The stock solutions were prepared in dimethyl sulfoxide (DMSO, Sigma-Aldrich, St. Louis, MO, cat. D2650), except for the platinum compounds which were prepared in saline (Quality Biological, Gaithersburg, MD, cat. 114-055-101), at 800-fold the tested concentration and stored at -70 degrees C prior to their use. All drugs and investigational agents were tested over a range starting from a high concentration at or near the clinical Cmax and decreasing in half-log increments. If the clinical Cmax for an agent had not been determined, the highest concentration tested was 10 microM, except for SN-38, which was tested at a high concentration of 1 microM.
Cell Culture. All cells were maintained in an incubator at 37 degrees C and 5% CO2 with 95% humidity. The PDC lines were cultured according to standard operating procedures established by the NCI PDMR (https://pdmr.cancer.gov). Table 3 of the manuscript, lists the cell lines along with the number of the three cell types plated to form the mct-spheroids and media for tumor cell growth. After thawing, all PDC lines, except 997537-175-T-J1-PDC and 415267-285-R-J2-PDC, were cultured in Matrigel-coated flasks prepared with a working solution of 1X Ham's F-12 nutrient mix, without supplementation (Thermo Fisher Scientific, cat. 11765054), 100 U/mL penicillin-streptomycin (Thermo Fisher Scientific, cat. 15140122), and 2.5% Matrigel (Corning Inc., Corning, NY, cat. 354248) for the first three passages. The two PDC lines 997537-175-T-J1-PDC and 415267-285-R-J2-PDC were cultured on uncoated flasks. The 857933-349-R-J2-PDC line was cultured in 6C/Colon 1B media containing advanced DMEM/F-12 (Thermo Fisher Scientific, cat. 12634028), 10 mM HEPES (Thermo Fisher Scientific, cat. 15630080), 1X GlutaMAX supplement (Thermo Fisher Scientific, cat. 35050061), 0.1 mg/mL primocin (InvivoGen, San Diego, CA, cat. ant-pm-2), 10% defined fetal bovine serum, heat inactivated (HyClone Laboratories Inc., Logan, UT, cat. SH30070.03HI), 50% L-WRN conditioned media (ATCC, cat. CRL-3276), 1.25 mM N-Acetyl-L-cysteine (Sigma-Aldrich, cat. A9165), 10 mM nicotinamide (Sigma-Aldrich, cat. N0636), 1X B-27 supplement (Thermo Fisher Scientific, cat. 17504044), 1X N-2 supplement (Thermo Fisher Scientific, cat. […]
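Wherever viability, T/C is given: spheroids exposed to drugs for seven days before readout.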

Work on `COc1ccc([C@@H](O)c2cc(-c3ncnc4cc(N5CCOCC5)ccc34)c(F)cc2Cl)nn1` + COC1C(OC(N)=O)C(O)C(Oc2ccc3c(O)c(NC(=O)c4ccc(O)c(CC=C(C)C)c4)c(=O)oc3c2C)OC1(C)C yielded an IC50 (curve of first compound, second compound 0.0316 µM) greater than 10 µM, an IC50 (curve of first compound, second compound 0.1 µM) greater than 10 µM and an IC50 (curve of first compound, second compound 0.316 µM) of 7.08 µM. For the same molecule, the IC50 (curve of first compound, second compound 1 µM) was greater than 10 µM, the IC50 (curve of first compound, second compound 3.16 µM) was greater than 10 µM and the IC50 (curve of first compound, second compound 10 µM) was 9.31 µM. The viability, T/C (second compound 0.0316 µM, first compound 0.0316 µM) was 116%, the viability, T/C (second compound 0.0316 µM, first compound 0.1 µM) was 82.3% and the viability, T/C (second compound 0.0316 µM, first compound 0.316 µM) was 105%. For the same molecule, the viability, T/C (second compound 0.0316 µM, first compound 1 µM) was 84.7%, the viability, T/C (second compound 0.0316 µM, first compound 3.16 µM) was 85.7% and the viability, T/C (second compound 0.0316 µM, first compound 10 µM) was 53.4%. The viability, T/C (second compound 0.1 µM, first compound 0.0316 µM) was 85.8%, the viability, T/C (second compound 0.1 µM, first compound 0.1 µM) was 85.7% and the viability, T/C (second compound 0.1 µM, first compound 0.316 µM) was 116%. The viability, T/C (second compound 0.1 µM, first compound 1 µM) was 79.5%, the viability, T/C (second compound 0.1 µM, first compound 3.16 µM) was 81.6% and the viability, T/C (second compound 0.1 µM, first compound 10 µM) was 54.1%. For the same molecule, the viability, T/C (second compound 0.316 µM, first compound 0.0316 µM) was 93.4%, the viability, T/C (second compound 0.316 µM, first compound 0.1 µM) was 98.2% and the viability, T/C (second compound 0.316 µM, first compound 0.316 µM) was 92.8%. It also gave a viability, T/C (second compound 0.316 µM, first compound 1 µM) of 89%, a viability, T/C (second compound 0.316 µM, first compound 3.16 µM) of 63% and a viability, T/C (second compound 0.316 µM, first compound 10 µM) of 44.4%. The viability, T/C (second compound 1 µM, first compound 0.0316 µM) was 95.8%, the viability, T/C (second compound 1 µM, first compound 0.1 µM) was 80.1% and the viability, T/C (second compound 1 µM, first compound 0.316 µM) was 92.8%. It also gave a viability, T/C (second compound 1 µM, first compound 1 µM) of 91%, a viability, T/C (second compound 1 µM, first compound 3.16 µM) of 85.6% and a viability, T/C (second compound 1 µM, first compound 10 µM) of 54.9%. The viability, T/C (second compound 3.16 µM, first compound 0.0316 µM) was 87.8%, the viability, T/C (second compound 3.16 µM, first compound 0.1 µM) was 102% and the viability, T/C (second compound 3.16 µM, first compound 0.316 µM) was 90.3%. The viability, T/C (second compound 3.16 µM, first compound 1 µM) was 73.8%, the viability, T/C (second compound 3.16 µM, first compound 3.16 µM) was 85% and the viability, T/C (second compound 3.16 µM, first compound 10 µM) was 49.9%. It also gave a viability, T/C (second compound 10 µM, first compound 0.0316 µM) of 87%, a viability, T/C (second compound 10 µM, first compound 0.1 µM) of 76% and a viability, T/C (second compound 10 µM, first compound 0.316 µM) of 109%. For the same molecule, the viability, T/C (second compound 10 µM, first compound 1 µM) was 76%, the viability, T/C (second compound 10 µM, first compound 3.16 µM) was 69.6% and the viability, T/C (second compound 10 µM, first compound 10 µM) was 48.5%.
For `CC[C@@]1(O)C(=O)OCc2c1cc1n(c2=O)Cc2cc3c(CN(C)C)c(O)ccc3nc2-1`, the viability, T/C (compound 0.000316 µM) was 84.4% and 108% and 96.4%, the viability, T/C (compound 0.001 µM) was 99.5% and 88.4% and 89.3% and the viability, T/C (compound 0.00316 µM) was 92.7% and 105% and 96.4%. For the same molecule, the viability, T/C (compound 0.01 µM) was 88.6% and 93.8% and 85.1%, the viability, T/C (compound 0.0316 µM) was 73% and 63.1% and 67.9% and the viability, T/C (compound 0.1 µM) was 51.1% and 55.8% and 48.8%. For the same molecule, the IC50 (curve of compound) was > 0.1 µM and 0.0933 µM.
